Assay results: EP4692090A1 (Shanghai Fosun Pharmaceutical (Group) Co., Ltd., priority 2023, dated 2024)
Where two headings read alike, the source gives them in different places.

Experiments:
LoVo cells = experiment: LoVo cell proliferation assay (CellTiter-Glo); format: cell-based; conditions: maximum concentration 10 µM, 9 concentrations
Description: Test Example 2: LoVo cell proliferation assay
LoVo (ATCC, #CRL-229) cells in logarithmic growth phase were digested, counted, and plated into 96-well cell culture plates at 2,000 cells per well. The plates containing cells were incubated overnight at 37°C in a 5% CO2 incubator, and then test compounds with 3-fold gradient dilutions (maximum concentration: 10 µM, 9 concentrations) were added. DMSO was used as a blank control. After the LoVo cells containing the compounds or DMSO were incubated for an additional 5 days, an equal volume of CellTiter-Glo reagent (Promega, #7573) was added. After incubation at room temperature for 30 minutes, chemiluminescence was read using an Envision 2105 (PerkinElmer). The cell proliferation inhibition rate (%) for wells treated with each concentration of the compounds was calculated using the following formula. Then, with compound concentration as the horizontal axis and cell proliferation inhibition rate (%) as the vertical axis, GraphPad software was used to plot the data and determine the IC50 values of the test compounds. The results are shown in Table 2, wherein the IC50 ranges are defined as follows: A: ≤ 100 nM; 1000 nM ≥ B > 100 nM; C > 1000 nM.
Cell proliferation inhibition (%) = (1 - luminescence value of compound-treated group / average luminescence value of DMSO blank control group) × 100. Table 2. Inhibitory effect of compounds on LoVo growth

ATR kinase = molecular target: T1, ATR kinase (Homo sapiens, UniProt Q13535); experiment: Inhibitory effect on ATR kinase activity (Caliper mobility shift, FAM-labeled RAD17 peptide substrate); format: biochemical
T1 construct: purchased Eurofins 14-953
Description: Test Example 1: Inhibitory effect of the compounds of the present disclosure on ATR kinase activity
Test compounds to be tested were serially diluted with DMSO (maximum concentration 1 µM, 10 concentrations with 3-fold serial dilution) and added to the wells of a 384-well reaction plate (Corning, #4512). 1 nM ATR kinase (Eurofins, #14-953), 5 mM substrate (FAM-labeled RAD17 peptide, FAM-ASELPASQPQPFSAKKK), 5 mM ATP and the compounds with corresponding concentrations reacted in a kinase reaction solution (50 mM HEPES, pH 7.5; 0.0015% Brij-35; 10 mM MnCl2, total volume of 20 µL) at 28°C for 3 hours. The reaction was terminated by adding 30 µL of stop solution (100 mM HEPES, pH 7.5; 0.015% Brij-35; 0.2% Coating Reagent #3, PerkinElmer; 50 mM EDTA). The reaction plate was placed on a Caliper instrument (PerkinElmer) for testing. The relative inhibitory activity of each compound concentration group was calculated using the following formula: % Inhibition = (Conversion rate of the blank control group without compound added - Conversion rate of the test compound group) / (Conversion rate of the blank control group - […]). The IC50 values were calculated using GraphPad analysis and fitted. […] Table 1. Inhibitory effect (IC50) of compounds on ATR kinase activity.

[1] = Homo sapiens, LoVo, 120 h, read-out: LoVo IC50 (nM), LoVo cells, 2,000 cells per well, 5 days incubation, CellTiter-Glo
[2] = read-out: ATR kinase IC50, 1 nM ATR kinase (Eurofins), 28°C for 3 hours, maximum concentration 1 µM, 10 concentrations
[3] = Homo sapiens, LoVo, 120 h, LoVo cells, 2,000 cells per well, 5 days incubation, CellTiter-Glo, read-out: LoVo IC50
[4] = 1 nM ATR kinase (Eurofins), 28°C for 3 hours, maximum concentration 1 µM, 10 concentrations, read-out: ATR kinase IC50
[5] = LoVo cells, 2,000 cells per well, 5 days incubation, CellTiter-Glo, read-out: LoVo IC50

T1 sequence (Q13535 whole entry): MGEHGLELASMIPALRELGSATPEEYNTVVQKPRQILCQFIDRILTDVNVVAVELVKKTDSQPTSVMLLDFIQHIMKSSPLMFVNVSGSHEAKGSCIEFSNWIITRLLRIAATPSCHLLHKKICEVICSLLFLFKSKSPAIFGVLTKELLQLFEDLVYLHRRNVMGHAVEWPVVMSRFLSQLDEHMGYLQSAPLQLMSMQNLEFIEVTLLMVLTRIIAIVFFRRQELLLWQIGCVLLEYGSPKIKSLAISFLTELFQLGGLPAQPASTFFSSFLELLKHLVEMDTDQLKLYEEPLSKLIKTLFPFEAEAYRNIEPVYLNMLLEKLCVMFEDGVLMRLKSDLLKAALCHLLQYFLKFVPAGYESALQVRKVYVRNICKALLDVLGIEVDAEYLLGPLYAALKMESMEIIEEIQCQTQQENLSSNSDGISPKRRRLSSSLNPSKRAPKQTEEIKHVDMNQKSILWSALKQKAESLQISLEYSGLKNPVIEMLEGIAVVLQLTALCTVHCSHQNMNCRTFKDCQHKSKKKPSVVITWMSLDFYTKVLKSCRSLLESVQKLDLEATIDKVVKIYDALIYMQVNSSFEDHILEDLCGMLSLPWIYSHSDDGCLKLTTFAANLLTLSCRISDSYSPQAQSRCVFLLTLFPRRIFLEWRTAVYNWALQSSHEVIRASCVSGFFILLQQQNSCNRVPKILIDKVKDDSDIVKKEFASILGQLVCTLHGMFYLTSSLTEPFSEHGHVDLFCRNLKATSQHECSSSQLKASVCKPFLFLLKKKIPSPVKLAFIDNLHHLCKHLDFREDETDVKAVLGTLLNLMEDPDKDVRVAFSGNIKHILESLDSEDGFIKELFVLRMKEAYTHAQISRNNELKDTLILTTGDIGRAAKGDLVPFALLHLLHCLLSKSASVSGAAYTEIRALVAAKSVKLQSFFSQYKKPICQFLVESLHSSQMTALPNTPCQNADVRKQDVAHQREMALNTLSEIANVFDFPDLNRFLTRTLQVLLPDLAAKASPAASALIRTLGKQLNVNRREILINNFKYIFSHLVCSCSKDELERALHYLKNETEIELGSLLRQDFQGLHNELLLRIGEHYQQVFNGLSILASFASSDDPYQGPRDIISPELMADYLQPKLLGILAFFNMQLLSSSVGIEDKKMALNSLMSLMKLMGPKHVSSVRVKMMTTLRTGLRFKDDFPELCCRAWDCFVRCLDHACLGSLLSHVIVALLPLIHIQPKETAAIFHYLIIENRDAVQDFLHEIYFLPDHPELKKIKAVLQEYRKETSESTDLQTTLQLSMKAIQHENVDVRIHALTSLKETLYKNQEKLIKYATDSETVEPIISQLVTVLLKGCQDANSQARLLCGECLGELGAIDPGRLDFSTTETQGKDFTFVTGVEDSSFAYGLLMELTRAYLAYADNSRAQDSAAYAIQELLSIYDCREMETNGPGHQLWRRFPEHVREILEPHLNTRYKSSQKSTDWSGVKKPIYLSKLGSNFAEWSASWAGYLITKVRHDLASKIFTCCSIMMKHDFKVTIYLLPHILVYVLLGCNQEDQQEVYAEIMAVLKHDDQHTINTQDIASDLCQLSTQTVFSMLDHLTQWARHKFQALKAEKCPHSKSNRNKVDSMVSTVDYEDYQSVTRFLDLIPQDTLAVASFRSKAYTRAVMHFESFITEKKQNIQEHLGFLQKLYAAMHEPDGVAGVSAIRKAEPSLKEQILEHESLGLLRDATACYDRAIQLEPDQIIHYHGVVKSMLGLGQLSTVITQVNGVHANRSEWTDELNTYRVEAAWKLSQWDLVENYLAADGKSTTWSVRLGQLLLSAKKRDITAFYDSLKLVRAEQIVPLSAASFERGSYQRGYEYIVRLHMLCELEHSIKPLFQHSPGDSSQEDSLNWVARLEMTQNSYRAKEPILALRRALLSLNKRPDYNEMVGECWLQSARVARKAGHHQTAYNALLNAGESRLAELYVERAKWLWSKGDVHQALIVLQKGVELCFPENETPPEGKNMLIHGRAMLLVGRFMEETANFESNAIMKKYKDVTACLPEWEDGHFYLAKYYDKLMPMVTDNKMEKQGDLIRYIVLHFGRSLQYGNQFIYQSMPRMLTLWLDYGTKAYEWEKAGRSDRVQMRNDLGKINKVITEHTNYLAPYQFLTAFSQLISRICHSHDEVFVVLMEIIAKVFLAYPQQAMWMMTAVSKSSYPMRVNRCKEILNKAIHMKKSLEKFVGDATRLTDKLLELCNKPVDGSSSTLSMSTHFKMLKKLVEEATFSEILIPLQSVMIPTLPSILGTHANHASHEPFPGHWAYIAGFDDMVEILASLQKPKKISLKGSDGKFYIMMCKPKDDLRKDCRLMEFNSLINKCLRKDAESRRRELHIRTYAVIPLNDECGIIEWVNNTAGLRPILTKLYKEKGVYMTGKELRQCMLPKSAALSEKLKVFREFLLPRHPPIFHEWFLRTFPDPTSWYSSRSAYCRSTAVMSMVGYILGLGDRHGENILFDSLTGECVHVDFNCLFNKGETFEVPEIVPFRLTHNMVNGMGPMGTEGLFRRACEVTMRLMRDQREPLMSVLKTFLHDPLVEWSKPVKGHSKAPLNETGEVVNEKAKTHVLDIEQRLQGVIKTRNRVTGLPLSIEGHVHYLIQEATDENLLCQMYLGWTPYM
T1 sequence (Q8WXE1 whole entry partner): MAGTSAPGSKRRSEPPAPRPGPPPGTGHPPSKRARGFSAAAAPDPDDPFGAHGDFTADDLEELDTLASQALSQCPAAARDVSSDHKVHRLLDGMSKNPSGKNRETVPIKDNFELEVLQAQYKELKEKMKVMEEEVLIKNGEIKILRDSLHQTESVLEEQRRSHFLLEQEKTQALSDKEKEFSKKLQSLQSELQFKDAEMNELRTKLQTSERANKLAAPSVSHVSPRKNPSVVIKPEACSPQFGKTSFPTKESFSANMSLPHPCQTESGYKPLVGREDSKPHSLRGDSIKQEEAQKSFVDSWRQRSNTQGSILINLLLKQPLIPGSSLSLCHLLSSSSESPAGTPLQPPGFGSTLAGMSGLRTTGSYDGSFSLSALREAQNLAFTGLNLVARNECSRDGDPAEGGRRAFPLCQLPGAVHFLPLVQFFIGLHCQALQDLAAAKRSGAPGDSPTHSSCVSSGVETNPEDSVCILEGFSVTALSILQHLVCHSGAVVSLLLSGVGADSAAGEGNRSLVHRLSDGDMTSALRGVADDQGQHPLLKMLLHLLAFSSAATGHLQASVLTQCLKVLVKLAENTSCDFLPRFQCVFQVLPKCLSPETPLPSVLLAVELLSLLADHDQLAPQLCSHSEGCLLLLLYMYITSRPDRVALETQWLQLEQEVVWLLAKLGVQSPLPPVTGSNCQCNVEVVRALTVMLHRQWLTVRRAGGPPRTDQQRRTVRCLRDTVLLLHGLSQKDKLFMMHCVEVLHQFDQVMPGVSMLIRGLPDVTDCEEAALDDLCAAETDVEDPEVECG

SMILES | IC50 (LoVo cells; [3]) [nM] | IC50 (ATR kinase; [4]) [nM] | other results
CC1c2cc(N3CCOC[C@H]3C)nc3c2c(nn3-c2cc[nH]n2)CCN1C(=O)C1(C(F)(F)F)CC1 (single isomer, unassigned) [Compound 33A] | – | – | IC50 (LoVo cells; [1]): < 100 nM; IC50 (ATR kinase; [2]): < 10 nM
C[C@@H]1COCCN1c1cc2c3c(nn(-c4cc[nH]n4)c3n1)CCN(C1CCOCC1)C2 [Compound 3, (R)-4-(2-(1H-pyrazol-3-yl)-7-(tetrahydro-2H-pyran-4-yl)-6,7,8,9-tetrahydro-2H-1,2,3,7-tetraazabenzo[cd]azulen-4-yl)-3-methylmorpholine] | 100 to 1000 | 10 to 100 | –
CC1c2cc(N3CCOC[C@H]3C)nc3c2c(nn3-c2cc[nH]n2)CCN1C(=O)C1(C(F)(F)F)CC1 (single isomer, unassigned) [Compound 33B] | – | – | IC50 (LoVo cells; read-out: LoVo IC50, LoVo cells, 2,000 cells per well, 5 days incubation, CellTiter-Glo): 100 to 1000 nM; IC50 (ATR kinase; [2]): 100 to 1000 nM
C[C@@H]1COCCN1c1cc2c3c(nn(-c4cc[nH]n4)c3n1)CCN(S(C)(=O)=O)C2 [Compound 22, (R)-3-methyl-4-(7-(methylsulfonyl)-2-(1H-pyrazol-3-yl)-6,7,8,9-tetrahydro-2H-1,2,3,7-tetraazabenzo[cd]azulen-4-yl)morpholine] | < 100 | < 10 | –
C[C@@H]1COCCN1c1cc2c3c(n1)c(-c1cc[nH]n1)nn3CCC(=O)N2C1(C#N)CC1 [Compound 105, (R)-1-(4-(3-methylmorpholinyl)-7-oxo-2-(1H-pyrazol-3-yl)-8,9-dihydro-1,3,6,9a-tetraazabenzo[cd]azulene-6(7H)-yl)cyclopropane-1-carbonitrile] | – | – | IC50 (LoVo cells; [1]): < 100 nM; IC50 (ATR kinase; [2]): < 10 nM
C[C@@H]1COCCN1c1cc2c3c(nn(-c4cc[nH]n4)c3n1)CCN(C1CC(C(F)(F)F)C1)C2 (single isomer, unassigned) [Compound 13A] | – | 10 to 100 | IC50 (LoVo cells; [5]): 100 to 1000 nM
C[C@@H]1COCCN1c1cc2c3c(nn(-c4cc[nH]n4)c3n1)CCN(C(=O)CC(F)(F)F)C2 [Compound 10, (R)-3,3,3-trifluoro-1-(4-(3-methylmorpholino)-2-(1H-pyrazol-3-yl)-2,6,8,9-tetrahydro-7H-1,2,3,7-tetraazabenzo[cd]azulen-7-yl)propan-1-one] | > 1000 | 10 to 100 | –
C[C@@H]1COCCN1c1cc2c3c(nn(-c4cc[nH]n4)c3n1)CCN(S(=O)(=O)C(F)F)C2 [Compound 27, (R)-4-(7-((difluoromethyl)sulfonyl)-2-(1H-pyrazol-3-yl)-6,7,8,9-tetrahydro-2H-1,2,3,7-tetraazabenzo[cd]azulen-4-yl)-3-methylmorpholine] | 100 to 1000 | < 10 | –
C[C@@H]1COCCN1c1cc2c3c(nn(-c4cc[nH]n4)c3n1)CCN(C(=O)C1(C(F)(F)F)CC1)C2 [Compound 18, (R)-(4-(3-methylmorpholinyl)-2-(1H-pyrazol-3-yl)-2,6,8,9-tetrahydro-7H-1,2,3,7-tetraazabenzo[cd]azulen-7-yl)(1-(trifluoromethyl)cyclopropyl)methanone] | – | – | IC50 (LoVo cells; [1]): < 100 nM; IC50 (ATR kinase; [2]): < 10 nM
CC(=O)N1CCc2nn(-c3cc[nH]n3)c3nc(N4CCOC[C@H]4C)cc(c23)C1C (stereo partly drawn) [Compound 38, 1-(6-methyl-4-((R)-3-methylmorpholinyl)-2-(1H-pyrazol-3-yl)-2,6,8,9-tetrahydro-7H-1,2,3,7-tetraazabenzo[cd]azulen-7-yl)ethan-1-one] | – | – | IC50 (LoVo cells; [1]): 100 to 1000 nM; IC50 (ATR kinase; [2]): < 10 nM
C[C@@H]1COCCN1c1cc2c3c(nn(-c4cc[nH]n4)c3n1)CCN(C1CC3(CC3)C1)C2 [Compound 11] | 100 to 1000 | 10 to 100 | –
C[C@@H]1COCCN1c1cc2c3c(nn(-c4cc[nH]n4)c3n1)CCN(C1CC(C(F)(F)F)C1)C2 (single isomer, unassigned) [Compound 13B] | – | 100 to 1000 | IC50 (LoVo cells; [5]): > 1000 nM
COCC12CC(N3C(=O)CCn4nc(-c5cc[nH]n5)c5nc(N6CCOC[C@H]6C)cc3c54)(C1)C2 [Compound 107, (R)-6-(3-(methoxymethyl)bicyclo[1.1.1]pentan-1-yl)-4-(3-methylmorpholinyl)-2-(1H-pyrazol-3-yl)-8,9-dihydro-1,3,6,9a-tetraazabenzo[cd]azulene-7(6H)-one] | – | – | IC50 (LoVo cells; [1]): 100 to 1000 nM; IC50 (ATR kinase; [2]): < 10 nM
C[C@@H]1COCCN1c1cc2c3c(nn(-c4cc[nH]n4)c3n1)CCN(C)C2=O [Compound 137, (R)-7-methyl-4-(3-methylmorpholinyl)-2-(1H-pyrazol-3-yl)-2,7,8,9-tetrahydro-6H-1,2,3,7-tetraazabenzo[cd]azulene-6-one] | – | – | IC50 (ATR kinase; [2]): 10 to 100 nM

Continued, in another order:

IC50 (LoVo cells; [3]) [nM] | IC50 (ATR kinase; [4]) [nM] | SMILES | other results
100 to 1000 | 10 to 100 | C[C@@H]1COCCN1c1cc2c3c(n1)c(-c1cc[nH]n1)nn3CCC(=O)N2 [Compound 93, (R)-4-(3-methylmorpholino)-2-(1H-pyrazol-3-yl)-8,9-dihydro-1,3,6,9a-tetraazabenzo[cd]azulene-7(6H)-one] | –
< 100 | < 10 | [2H]C([2H])([2H])N1CCc2nn(-c3cc[nH]n3)c3nc(N4CCOC[C@H]4C)cc(c23)C1C (single isomer, unassigned) [Compound 47A] | –
– | 100 to 1000 | CC1c2cc(N3CCOC[C@H]3C)nc3c2c(nn3-c2cc[nH]n2)CCN1S(=O)(=O)C1CC1F (single isomer, unassigned) [Compound 151D] | IC50 (LoVo cells; [5]): 100 to 1000 nM
< 100 | < 10 | CC1c2cc(N3CCOC[C@H]3C)nc3c2c(nn3-c2cc[nH]n2)CCN1C (single isomer, unassigned) [Compound 35A] | –
< 100 | < 10 | CC1c2cc(N3CCOC[C@H]3C)nc3c2c(nn3-c2cc[nH]n2)CCN1C1CC1 (single isomer, unassigned) [Compound 31A] | –
– | < 10 | CCN1CCc2nn(-c3cc[nH]n3)c3nc(N4CCOC[C@H]4C)cc(c23)C1C (single isomer, unassigned) [Compound 41B] | IC50 (LoVo cells; [5]): < 100 nM
– | 100 to 1000 | CC(C)C1(O)CCn2nc(-c3cc[nH]n3)c3nc(N4CCOC[C@H]4C)cc1c32 (single isomer, unassigned) [Compound 72A] | IC50 (LoVo cells; [5]): > 1000 nM
– | < 10 | C[C@@H]1COCCN1c1cc2c3c(nn(-c4cc[nH]n4)c3n1)CCN(S(C)(=O)=O)C2C1CC1 (single isomer, unassigned) [Compound 138B] | IC50 (LoVo cells; [5]): < 100 nM
> 1000 | 10 to 100 | C[C@@H]1COCCN1c1cc2c3c(n1)c(-c1cc[nH]n1)nn3CCN(C(=O)C1CC(F)(F)C1)C2 [Compound 53, (R)-(3,3-difluorocyclobutyl)(4-(3-methylmorpholino)-2-(1H-pyrazol-3-yl)-8,9-dihydro-1,3,7,9a-tetraazabenzo[cd]azulene-7(6H)-yl)methanone] | –
– | < 10 | CC1c2cc(N3CCOC[C@H]3C)nc3c2c(nn3-c2cc[nH]n2)CCN1S(C)(=N)=O (single isomer, unassigned) [Compound 46C] | IC50 (LoVo cells; [5]): < 100 nM
100 to 1000 | 10 to 100 | C[C@@H]1COCCN1c1cc2c3c(n1)c(-c1cc[nH]n1)nn3CCN(S(C)(=O)=O)C2 [Compound 55, (R)-3-methyl-4-(7-(methylsulfonyl)-2-(1H-pyrazol-3-yl)-6,7,8,9-tetrahydro-1,3,7,9a-tetraazabenzo[cd]azulen-4-yl)morpholine] | –
– | 10 to 100 | CC(C(N)=O)N1C(=O)CCn2nc(-c3cc[nH]n3)c3nc(N4CCOC[C@H]4C)cc1c32 (stereo partly drawn) [Compound 104, 2-(4-((R)-3-methylmorpholino)-7-oxo-2-(1H-pyrazol-3-yl)-8,9-dihydro-1,3,6,9a-tetraazabenzo[cd]azulene-6(7H)-yl)propanamide] | –
– | < 10 | CC1c2cc(N3CCOC[C@H]3C)nc3c2c(nn3-c2cc[nH]n2)CCN1C (single isomer, unassigned) [Compound 35B] | –
